Laboratory results from patent US8242113B2, “Oxazolidinone derivatives with cyclic amidoxime or cyclic amidrazone pharmaceutical compositions thereof” (Legochem Biosciences, Inc., priority 2008, dated 2012).
Values after ≈ are worked out from the molar mass of the structure shown.

What was measured:
[1] = tested on: methicillin-resistant Staphylococcus aureus (MRSA); assay: In vitro antibacterial activity, broth microdilution (MIC90); conditions: read-out: Antibacterial activity MIC90, MRSA
From the text: (§1) MIC90 measurement was made according to the broth microdilution method based on the CLSI document [Clinical and Laboratory Standards Institute Document.
(§2) The test compounds in DMSO solution were further diluted 20-fold with sterile distilled water.

[2] = tested on: linezolid- and vancomycin-resistant Enterococcus faecalis (LVRE); assay: as above; conditions: read-out: Antibacterial activity MIC90, LVRE
From the text: as §1, §2

Compound	MIC90 [1] [µg/mL]	MIC [2] [µg/mL]
COC(=S)NC[C@H]1CN(c2ccc(N3C=NN(C(=S)OC)CC3)c(F)c2)C(=O)O1 [Compound 72]	0.5 (≈ 1.13 µM)	2 (≈ 4.53 µM)
CNC(=S)N1CCN(c2ccc(N3C[C@H](CNC(C)=O)OC3=O)cc2F)C=N1 [Compound 19]	0.5 (≈ 1.22 µM)	4 (≈ 9.79 µM)
O=C1O[C@@H](CO)CN1c1ccc(N2C=NNCC2)c(F)c1 [Compound 93]	1 (≈ 3.4 µM)	32 (≈ 109 µM)
CC(=O)NC[C@H]1CN(c2ccc(N3C=NN(C#N)CC3)c(F)c2)C(=O)O1 [Compound 9]	0.5 (≈ 1.39 µM)	8 (≈ 22.2 µM)
COC(=S)NC[C@H]1CN(c2ccc(N3C=NN(C=O)CC3)cc2)C(=O)O1 [Compound 97]	0.5 (≈ 1.32 µM)	8 (≈ 21.2 µM)
CCOC(=S)N1CCN(c2ccc(N3C[C@H](CNC(C)=O)OC3=O)cc2F)C=N1 [Compound 31]	1 (≈ 2.36 µM)	8 (≈ 18.9 µM)
CC(=O)NC[C@H]1CN(c2ccc(N3C=NN(C=O)CC3)cc2)C(=O)O1 [Compound 95]	1 (≈ 2.9 µM)	16 (≈ 46.3 µM)
O=CN1CCN(c2ccc(N3C[C@H](CNC(=O)C(Cl)Cl)OC3=O)cc2F)C=N1 [Compound 51]	1 (≈ 2.31 µM)	4 (≈ 9.25 µM)
CC(=O)NC[C@H]1CN(c2ccc(N3C=NN(C(=O)C4CC4)CC3)c(F)c2)C(=O)O1 [Compound 13]	4 (≈ 9.92 µM)	16 (≈ 39.7 µM)
CC(=O)NC[C@H]1CN(c2ccc(N3C=NN(C(C)=S)CC3)c(F)c2)C(=O)O1 [Compound 34]	0.5 (≈ 1.27 µM)	4 (≈ 10.2 µM)
CN1CCN(c2c(F)cc(N3C[C@H](Cn4ccnn4)OC3=O)cc2F)C=N1 [Compound 104]	2 (≈ 5.3 µM)	32 (≈ 84.8 µM)
C#CCN1CCN(c2ccc(N3C[C@H](CNC(=S)C(F)F)OC3=O)cc2F)C=N1 [Compound 78]	0.5 (≈ 1.18 µM)	4 (≈ 9.4 µM)
CCOC(=O)CN1CCN(c2ccc(N3C[C@H](CNC(=S)OC)OC3=O)cc2F)C=N1 [Compound 69]	2 (≈ 4.41 µM)	8 (≈ 17.6 µM)
COC(=S)NC[C@H]1CN(c2ccc(N3C=NN(CCO)CC3)c(F)c2)C(=O)O1 [Compound 70]	1 (≈ 2.43 µM)	4 (≈ 9.72 µM)
N#CCC(=O)NC[C@H]1CN(c2ccc(N3C=NN(C=O)CC3)c(F)c2)C(=O)O1 [Compound 42]	8 (≈ 20.6 µM)	32 (≈ 82.4 µM)
C=CCN1CCN(c2ccc(N3C[C@H](CNC(C)=O)OC3=O)cc2F)C=N1 [Compound 4]	1 (≈ 2.66 µM)	8 (≈ 21.3 µM)
CC(=O)NC[C@H]1CN(c2ccc(N3C=NN(C(=O)CC#N)CC3)c(F)c2)C(=O)O1 [Compound 11]	1 (≈ 2.49 µM)	8 (≈ 19.9 µM)
CCOC(=S)NC[C@H]1CN(c2ccc(N3C=NN(C=O)CC3)c(F)c2)C(=O)O1 [Compound 54]	0.5 (≈ 1.22 µM)	4 (≈ 9.77 µM)
O=CN1CCN(c2ccc(N3C[C@H](CNc4nccs4)OC3=O)cc2F)C=N1 [Compound 80]	2 (≈ 4.95 µM)	16 (≈ 39.6 µM)

Compound	MIC90 [1] [µg/mL]	MIC [2] [µg/mL]
CC(=O)NC[C@H]1CN(c2ccc(N3C=NNCC3)c(F)c2)C(=O)O1 [Compound 2]	2 (≈ 5.96 µM)	16 (≈ 47.7 µM)
CC(=O)NC[C@H]1CN(c2ccc(N3C=NN(C(=S)NCCO)CC3)c(F)c2)C(=O)O1 [Compound 33]	2 (≈ 4.56 µM)	8 (≈ 18.2 µM)
CCNC(=O)NC[C@H]1CN(c2ccc(N3C=NN(C=O)CC3)c(F)c2)C(=O)O1 [Compound 44]	8 (≈ 20.4 µM)	64 (≈ 163 µM)
CC(=O)NC[C@H]1CN(c2ccc(N3C=NN(CC#N)CC3)c(F)c2)C(=O)O1 [Compound 7]	1 (≈ 2.67 µM)	8 (≈ 21.4 µM)
CC(=O)NC[C@H]1CN(c2ccc(N3C=NN(C(=O)CO)CC3)c(F)c2)C(=O)O1 [Compound 12]	2 (≈ 5.08 µM)	8 (≈ 20.3 µM)
O=CN1CCN(c2ccc(N3C[C@H](CNC(=S)C(F)F)OC3=O)cc2F)C=N1 [Compound 77]	0.5 (≈ 1.2 µM)	4 (≈ 9.63 µM)
C=CCN1CCN(c2ccc(N3C[C@H](CNC(=S)OC)OC3=O)cc2F)C=N1 [Compound 62]	0.0625 (≈ 0.153 µM)	2 (≈ 4.91 µM)
CC(=O)NC[C@H]1CN(c2ccc(N3C=NN(C(N)=S)CC3)c(F)c2)C(=O)O1 [Compound 29]	0.5 (≈ 1.27 µM)	4 (≈ 10.1 µM)
CC(=S)NC[C@H]1CN(c2ccc(N3C=NN(CC#N)CC3)c(F)c2)C(=O)O1 [Compound 75]	0.25 (≈ 0.64 µM)	2 (≈ 5.12 µM)
CCN1CCN(c2ccc(N3C[C@H](CNc4ccon4)OC3=O)cc2F)C=N1 [Compound 90]	2 (≈ 5.15 µM)	8 (≈ 20.6 µM)
COC(=S)NC[C@H]1CN(c2ccc(N3C=NN(C)CC3)c(F)c2)C(=O)O1 [Compound 60]	0.25 (≈ 0.655 µM)	2 (≈ 5.24 µM)
O=CN1CCN(c2ccc(N3C[C@H](Cn4ccnn4)OC3=O)cc2)C=N1 [Compound 99]	2 (≈ 5.63 µM)	32 (≈ 90.1 µM)
CC(=O)NC[C@H]1CN(c2ccc(N3C=NN(CC(C)O)CC3)c(F)c2)C(=O)O1 (stereo partly drawn) [Compound 38]	4 (≈ 10.2 µM)	8 (≈ 20.3 µM)
CC(=O)NC[C@H]1CN(c2ccc(N3C=NN(C(=O)C(F)F)CC3)c(F)c2)C(=O)O1 [Compound 17]	1 (≈ 2.42 µM)	8 (≈ 19.4 µM)
COC(=S)NC[C@H]1CN(c2ccc(N3C=NN(C4CCC4)CC3)c(F)c2)C(=O)O1 [Compound 68]	0.25 (≈ 0.593 µM)	2 (≈ 4.74 µM)
CC(=O)NC[C@H]1CN(c2ccc(N3C=NN(CC(=O)NO)CC3)c(F)c2)C(=O)O1 [Compound 26]	16 (≈ 39.2 µM)	64 (≈ 157 µM)
CC(=O)NC[C@H]1CN(c2ccc(N3C=NN(S(=O)(=O)N(C)C)CC3)c(F)c2)C(=O)O1 [Compound 21]	2 (≈ 4.52 µM)	4 (≈ 9.04 µM)
CC#CCN1CCN(c2ccc(N3C[C@H](CNC(=S)OC)OC3=O)cc2F)C=N1 [Compound 64]	2 (≈ 4.77 µM)	8 (≈ 19.1 µM)
CC(=O)OCC(=O)N1CCN(c2ccc(N3C[C@H](CNc4ccon4)OC3=O)cc2F)C=N1 [Compound 88]	0.5 (≈ 1.09 µM)	8 (≈ 17.4 µM)

Compound	MIC90 [1] [µg/mL]	MIC [2] [µg/mL]
O=CN1CCN(c2ccc(N3C[C@H](CO)OC3=O)cc2F)C=N1 [Compound 92]	1 (≈ 3.1 µM)	64 (≈ 199 µM)
C#CCN1CCN(c2ccc(N3C[C@H](CNc4ccon4)OC3=O)cc2F)C=N1 [Compound 91]	0.5 (≈ 1.26 µM)	8 (≈ 20.1 µM)
CCOC(=O)NC[C@H]1CN(c2ccc(N3C=NN(C=O)CC3)c(F)c2)C(=O)O1 [Compound 43]	2 (≈ 5.08 µM)	32 (≈ 81.3 µM)
CC(=O)CN1CCN(c2ccc(N3C[C@H](CNC(C)=O)OC3=O)cc2F)C=N1 [Compound 37]	2 (≈ 5.11 µM)	8 (≈ 20.4 µM)
O=CN1CCN(c2ccc(N3C[C@H](CNC(=O)c4ccno4)OC3=O)cc2F)C=N1 [Compound 52]	2 (≈ 4.8 µM)	16 (≈ 38.4 µM)
O=CN1CCN(c2ccc(N3C[C@H](CNC(=O)C(F)F)OC3=O)cc2F)C=N1 [Compound 45]	1 (≈ 2.5 µM)	4 (≈ 10 µM)
O=CN1CCN(c2ccc(N3C[C@H](CNc4ccon4)OC3=O)cc2)C=N1 [Compound 100]	0.5 (≈ 1.35 µM)	32 (≈ 86.4 µM)
CC(=O)NC[C@H]1CN(c2ccc(N3C=NN(C4CCC4)CC3)c(F)c2)C(=O)O1 [Compound 41]	2 (≈ 5.14 µM)	4 (≈ 10.3 µM)
CC(=O)NC[C@H]1CN(c2ccc(N3C=NN(C(=O)C(C)=O)CC3)c(F)c2)C(=O)O1 [Compound 36]	2 (≈ 4.93 µM)	8 (≈ 19.7 µM)
O=C(NC[C@H]1CN(c2ccc(N3C=NNCC3)c(F)c2)C(=O)O1)C(F)F [Compound 46]	2 (≈ 5.39 µM)	16 (≈ 43.1 µM)
O=CN1CCN(c2ccc(N3C[C@H](COc4ccon4)OC3=O)cc2F)C=N1 [Compound 79]	8 (≈ 20.5 µM)	> 64
C#CCN1CCN(c2ccc(N3C[C@H](CNC(=O)C(F)F)OC3=O)cc2F)C=N1 [Compound 49]	1 (≈ 2.44 µM)	8 (≈ 19.5 µM)
CN1CCN(c2ccc(N3C[C@H](CNc4ccon4)OC3=O)cc2)C=N1 [Compound 101]	1 (≈ 2.81 µM)	32 (≈ 89.8 µM)
C=C(Cl)CN1CCN(c2ccc(N3C[C@H](CNC(C)=O)OC3=O)cc2F)C=N1 [Compound 40]	2 (≈ 4.88 µM)	8 (≈ 19.5 µM)
O=C(CO)N1CCN(c2ccc(N3C[C@H](CNc4ccon4)OC3=O)cc2F)C=N1 [Compound 87]	0.5 (≈ 1.2 µM)	8 (≈ 19.1 µM)
C=C(C)CN1CCN(c2ccc(N3C[C@H](CNC(C)=O)OC3=O)cc2F)C=N1 [Compound 39]	2 (≈ 5.14 µM)	8 (≈ 20.5 µM)
CC(=O)NC[C@H]1CN(c2ccc(N3C=NN(CC(F)(F)F)CC3)c(F)c2)C(=O)O1 [Compound 8]	4 (≈ 9.58 µM)	16 (≈ 38.3 µM)
O=C(NC[C@H]1CN(c2ccc(N3C=NN(C(=O)CO)CC3)c(F)c2)C(=O)O1)C(F)F [Compound 47]	2 (≈ 4.66 µM)	8 (≈ 18.6 µM)
CCN1CCN(c2ccc(N3C[C@H](CNC(=O)C(F)F)OC3=O)cc2F)C=N1 [Compound 48]	4 (≈ 10 µM)	16 (≈ 40.1 µM)
